Data from patent US20240287078A1, “QUINAZOLINE DERIVATIVES USEFUL AS RAS INHIBITORS” (Redx Pharma PLC, priority 2021, published 2024).

What was measured:
Type in all cases: biochemical
KRAS G12D = molecular target: T1, KRAS G12D (Homo sapiens, UniProt P01116, G12D); assay: HTRF nucleotide exchange assay (NEA), KRAS G12D; details: recombinant human KRAS aa1-188 G12D, 2 nM, 60 min compound incubation, EDA-GTP-DY647P1; for inhibition at 10 µM: 1 h
T1 construct: aa1-188 KRAS WT, HRAS WT, NRAS WT, or KRAS containing the containing the G12D, G13D or Q61H amino acid substitutions
T1 sequence (P01116 1-188 isoform P01116-2 G12D): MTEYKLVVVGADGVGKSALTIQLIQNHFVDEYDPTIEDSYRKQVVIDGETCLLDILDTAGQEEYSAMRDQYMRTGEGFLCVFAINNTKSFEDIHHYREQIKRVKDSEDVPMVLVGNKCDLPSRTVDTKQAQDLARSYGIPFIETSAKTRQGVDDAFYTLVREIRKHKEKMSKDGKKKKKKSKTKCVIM
Protocol: (§1) HTRF Nucleotide Exchange Assay Method
(§2) The capacity of compounds to bind KRAS G12D, other KRAS mutants and wildtype RAS isoforms was quantified using a HTRF nucleotide exchange assay. Recombinant human RAS protein (2 nM; aa1-188 KRAS WT, HRAS WT, NRAS WT, or KRAS containing the containing the G12D, G13D or Q61H amino acid substitutions, or 4 nM KRAS; aa1-188 containing the G12V, G12C, G12A or G12S amino acid substitution, an N-terminal 6×His-tag and leader sequence), and 2 nM Europium-labeled anti-6×His antibody were mixed in assay buffer (10 mM HEPES pH7.3, 150 mM NaCl, 5 mM MgCl2, 0.05% BSA, 0.0025% NP-40 and 100 mM KF) with various concentrations of compound in a 384-well plate and a volume of 5 uL. After a 60-minute incubation at room temperature, Sul of 200 nM EDA-GTP-DY647P1 (diluted in assay buffer) was added to the plate. Following 30-minute incubation at room temperature, time-resolved fluorescence was measured on a PerkinElmer Envision plate reader. DMSO (0.3%) and unlabeled GDP (1 μM) or equivalent tool compound were used to generate the Max and Min assay signals, respectively. Data was analysed using a four-parameter logistic model to calculate IC50 values, with at least two independent replicates were performed for each compound.

KRAS WT = molecular target: T2, KRAS WT (Homo sapiens, UniProt P01116); assay: HTRF nucleotide exchange assay (NEA), KRAS WT; details: recombinant human KRAS WT aa1-188, 2 nM, 60 min compound incubation, EDA-GTP-DY647P1; for inhibition at 10 µM: 1 h
T2 construct: aa1-188 KRAS WT, HRAS WT, NRAS WT
T2 sequence (P01116 1-188 isoform P01116-2): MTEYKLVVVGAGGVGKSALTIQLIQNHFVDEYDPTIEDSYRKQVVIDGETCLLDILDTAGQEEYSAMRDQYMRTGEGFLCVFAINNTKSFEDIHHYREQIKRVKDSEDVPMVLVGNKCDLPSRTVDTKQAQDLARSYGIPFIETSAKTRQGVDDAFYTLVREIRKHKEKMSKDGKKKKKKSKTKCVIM
Protocol: as §1, §2

KRAS G12C = molecular target: T3, KRAS G12C (Homo sapiens, UniProt P01116, G12C); assay: HTRF nucleotide exchange assay (NEA), KRAS G12C; details: recombinant human KRAS aa1-188 G12C, 4 nM; 60 min compound incubation, EDA-GTP-DY647P1
T3 construct: 4 nM KRAS; aa1-188 containing the G12V, G12C, G12A or G12S amino acid substitution
T3 sequence (P01116 1-188 isoform P01116-2 G12C): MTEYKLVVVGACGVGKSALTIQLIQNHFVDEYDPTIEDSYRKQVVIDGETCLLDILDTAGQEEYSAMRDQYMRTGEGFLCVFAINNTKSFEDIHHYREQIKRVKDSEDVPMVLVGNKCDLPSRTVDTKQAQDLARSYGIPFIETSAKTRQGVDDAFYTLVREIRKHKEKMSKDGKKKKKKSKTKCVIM
Protocol: as §1, §2

KRAS G13D = molecular target: T4, KRAS G13D (Homo sapiens, UniProt P01116, G13D); assay: HTRF nucleotide exchange assay (NEA), KRAS G13D; details: recombinant human KRAS aa1-188 G13D, 2 nM, 60 min compound incubation, EDA-GTP-DY647P1; for inhibition at 10 µM: 1 h
T4 construct: aa1-188 KRAS WT, HRAS WT, NRAS WT, or KRAS containing the containing the G12D, G13D or Q61H amino acid substitutions
T4 sequence (P01116 1-188 isoform P01116-2 G13D): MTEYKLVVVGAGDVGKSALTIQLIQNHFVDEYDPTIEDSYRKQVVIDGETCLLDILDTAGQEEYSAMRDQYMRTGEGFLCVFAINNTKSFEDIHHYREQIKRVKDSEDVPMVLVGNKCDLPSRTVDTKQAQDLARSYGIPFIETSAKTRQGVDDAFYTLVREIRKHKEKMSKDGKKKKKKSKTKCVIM
Protocol: as §1
The capacity of compounds to bind KRAS G12D, other KRAS mutants and wildtype RAS isoforms was quantified using a HTRF nucleotide exchange assay. […] After a 60-minute incubation at room temperature, Sul of 200 nM EDA-GTP-DY647P1 (diluted in assay buffer) was added to the plate. Following 30-minute incubation at room temperature, time-resolved fluorescence was measured on a PerkinElmer Envision plate reader. DMSO (0.3%) and unlabeled GDP (1 μM) or equivalent tool compound were used to generate the Max and Min assay signals, respectively. Data was analysed using a four-parameter logistic model to calculate IC50 values, with at least two independent replicates were performed for each compound.

KRAS G12S = molecular target: T5, KRAS G12S (Homo sapiens, UniProt P01116, G12S); assay: HTRF nucleotide exchange assay (NEA), KRAS G12S; details: 1 h; recombinant human KRAS aa1-188 G12S, 4 nM; 60 min compound incubation, EDA-GTP-DY647P1
T5 construct: 4 nM KRAS; aa1-188 containing the G12V, G12C, G12A or G12S amino acid substitution
T5 sequence (P01116 1-188 isoform P01116-2 G12S): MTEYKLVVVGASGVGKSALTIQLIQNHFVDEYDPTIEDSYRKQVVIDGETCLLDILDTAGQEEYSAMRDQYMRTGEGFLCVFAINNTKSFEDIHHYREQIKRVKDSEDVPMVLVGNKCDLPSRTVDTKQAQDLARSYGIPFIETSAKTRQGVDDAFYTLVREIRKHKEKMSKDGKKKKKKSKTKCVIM
Protocol: as §1, §2

| SMILES | inhibition at 10 µM (KRAS G12D) [%] | inhibition at 10 µM (KRAS WT) [%] | also measured |
| --- | --- | --- | --- |
| Cc1c(-c2cc(O)cc3ccccc23)ccc2c(N3CC4CCC(C3)N4)nc(OCC34CCCN3CCC4)nc12 [Example 1, 4-[4-(3,8-diazabicyclo[3.2.1]octan-3-yl)-2-(1,2,3,5,6,7-hexahydropyrrolizin-8-ylmethoxy)-8-methyl-quinazolin-7-yl]naphthalen-2-ol] |  |  | IC50 (KRAS G12D): < 10 nM; IC50 (KRAS WT): 100 to 10000 nM; IC50 (KRAS G12C): 100 to 10000 nM; inhibition at 10 µM (KRAS G13D): 10 to 49% |
| Cc1c(-c2cc(O)cc3ccccc23)ccc2c(N3CCSCC3)nc(OCC34CCCN3CCC4)nc12 [Example 3, 4-[2-(1,2,3,5,6,7-hexahydropyrrolizin-8-ylmethoxy)-8-methyl-4-thiomorpholino-quinazolin-7-yl]naphthalen-2-ol] |  |  | IC50 (KRAS G12D): 100 to 10000 nM; IC50 (KRAS WT): 100 to 10000 nM; IC50 (KRAS G12C): 100 to 10000 nM; IC50 (KRAS G13D): 100 to 10000 nM |
| Cc1c(-c2cc(O)cc3ccccc23)ccc2c(N3CCOCCC3=O)nc(OCC34CCCN3CCC4)nc12 [Example 4, 4-[2-(1,2,3,5,6,7-hexahydropyrrolizin-8-ylmethoxy)-7-(3-hydroxy-1-naphthyl)-8-methyl-quinazolin-4-yl]-1,4-oxazepan-5-one] | 10 to 49 | 10 to 49 | inhibition at 10 µM (KRAS G13D): 10 to 49% |
| Cc1c(-c2cc(O)cc3ccccc23)ccc2c(N3CCCOCC3=O)nc(OCC34CCCN3CCC4)nc12 [Example 5, 4-[2-(1,2,3,5,6,7-hexahydropyrrolizin-8-ylmethoxy)-7-(3-hydroxy-1-naphthyl)-8-methyl-quinazolin-4-yl]-1,4-oxazepan-3-one] | 10 to 49 | 10 to 49 | inhibition at 10 µM (KRAS G13D): 10 to 49% |
| Cc1c(-c2cc(O)cc3ccccc23)ccc2c(N3CCn4nccc4C3)nc(OCC34CCCN3CCC4)nc12 [Example 7] | 10 to 49 | 10 to 49 | inhibition at 10 µM (KRAS G12S): 10 to 49% |
| Cc1c(-c2cc(O)cc3ccccc23)ccc2c(N3CCn4cncc4C3)nc(OCC34CCCN3CCC4)nc12 [Example 8, 4-[4-(6,8-dihydro-5H-imidazo[1,5-a]pyrazin-7-yl)-2-(1,2,3,5,6,7-hexahydropyrrolizin-8-ylmethoxy)-8-methyl-quinazolin-7-yl]naphthalen-2-ol] | 10 to 49 | 10 to 49 | inhibition at 10 µM (KRAS G12S): 10 to 49% |
| Cc1c(-c2cc(O)cc3ccccc23)ccc2c(N3CCn4ccnc4C3)nc(OCC34CCCN3CCC4)nc12 [Example 9, 4-[4-(6,8-dihydro-5H-imidazo[1,2-a]pyrazin-7-yl)-2-(1,2,3,5,6,7-hexahydropyrrolizin-8-ylmethoxy)-8-methyl-quinazolin-7-yl]naphthalen-2-ol] | 10 to 49 | 10 to 49 | inhibition at 10 µM (KRAS G12S): 10 to 49% |
| Cc1c(-c2cc(O)cc3ccccc23)ccc2c(N3CCc4[nH]ncc4C3)nc(OCC34CCCN3CCC4)nc12 [Example 10, 4-[2-(1,2,3,5,6,7-hexahydropyrrolizin-8-ylmethoxy)-8-methyl-4-(1,4,6,7-tetrahydropyrazolo[4,3-c]pyridin-5-yl)quinazolin-7-yl]naphthalen-2-ol] | 10 to 49 | 10 to 49 |  |
| Cc1c(-c2cc(O)cc3ccccc23)ccc2c(N3CCc4cn[nH]c4C3)nc(OCC34CCCN3CCC4)nc12 [Example 11, 4-[2-(1,2,3,5,6,7-hexahydropyrrolizin-8-ylmethoxy)-8-methyl-4-(1,4,5,7-tetrahydropyrazolo[3,4-c]pyridin-6-yl)quinazolin-7-yl]naphthalen-2-ol] | 10 to 49 | 10 to 49 |  |
| Cc1c(-c2ncnc3ccc(C#N)cc23)ccc2c(N3CCCOCC3)nc(OCC34CCCN3CCC4)nc12 [Example 12, 4-[2-(1,2,3,5,6,7-hexahydropyrrolizin-8-ylmethoxy)-8-methyl-4-(1,4-oxazepan-4-yl)quinazolin-7-yl]quinazoline-6-carbonitrile] | 10 to 49 | 10 to 49 |  |
| Cc1c(-c2cccc3sc(N)nc23)ccc2c(N3CCCOCC3)nc(OCC34CCCN3CCC4)nc12 [Example 13, 4-[2-(1,2,3,5,6,7-hexahydropyrrolizin-8-ylmethoxy)-8-methyl-4-(1,4-oxazepan-4yl)quinazolin-7-yl]-1,3-benzothiazol-2-amine] |  |  | IC50 (KRAS G12D): 100 to 10000 nM; IC50 (KRAS WT): 100 to 10000 nM |
| Cc1nc(-c2ccc3c(N4CCCOCC4)nc(OCC45CCCN4CCC5)nc3c2C)c2ccccc2n1 [Example 14, 4-[2-(1,2,3,5,6,7-hexahydropyrrolizin-8-ylmethoxy)-8-methyl-7-(2-methylquinazolin-4-yl)quinazolin-4-yl]-1,4-oxazepane] | 10 to 49 | 10 to 49 |  |
| COc1ccc(C(F)(F)F)cc1-c1ccc2c(N3CCCOCC3)nc(OCC34CCCN3CCC4)nc2c1C [Example 15, 4-[2-(1,2,3,5,6,7-hexahydropyrrolizin-8-ylmethoxy)-7-[2-methoxy-5-(trifluoromethyl)phenyl]-8-methyl-quinazolin-4-yl]-1,4-oxazepane] | 10 to 49 | 10 to 49 |  |
| COc1ccc(Cl)cc1-c1ccc2c(N3CCCOCC3)nc(OCC34CCCN3CCC4)nc2c1C [Example 16, 4-[7-(5-chloro-2-methoxy-phenyl)-2-(1,2,3,5,6,7-hexahydropyrrolizin-8-ylmethoxy)-8-methyl-quinazolin-4-yl]-1,4-oxazepane] | 10 to 49 |  | IC50 (KRAS WT): 100 to 10000 nM |
| Cc1c(-c2c[nH]nc2C(F)(F)F)ccc2c(N3CCCOCC3)nc(OCC34CCCN3CCC4)nc12 [Example 17, 4-[2-(1,2,3,5,6,7-hexahydropyrrolizin-8-ylmethoxy)-8-methyl-7-[3-(trifluoromethyl)-1H-pyrazol-4-yl]quinazolin-4-yl]-1,4-oxazepane] | 10 to 49 | 10 to 49 |  |
| Cc1ccc2[nH]ncc2c1-c1ccc2c(N3CCCOCC3)nc(OCC34CCCN3CCC4)nc2c1C [Example 18, 4-[2-(1,2,3,5,6,7-hexahydropyrrolizin-8-ylmethoxy)-8-methyl-7-(5-methyl-1H-indazol-4-yl)quinazolin-4-yl]-1,4-oxazepane] | 10 to 49 | 10 to 49 |  |
| Cc1c(-c2cccc3[nH]ncc23)ccc2c(N3CCCOCC3)nc(OCC34CCCN3CCC4)nc12 [Example 19, 4-[2-(1,2,3,5,6,7-hexahydropyrrolizin-8-ylmethoxy)-7-(1H-indazol-4-yl)-8-methyl-quinazolin-4-yl]-1,4-oxazepane] | 10 to 49 | 10 to 49 |  |
| Cc1c(-c2n[nH]c3ccccc23)ccc2c(N3CCCOCC3)nc(OCC34CCCN3CCC4)nc12 [Example 20, 4-[2-(1,2,3,5,6,7-hexahydropyrrolizin-8-ylmethoxy)-7-(1H-indazol-3-yl)-8-methyl-quinazolin-4-yl]-1,4-oxazepane] | 10 to 49 | 10 to 49 |  |
| Cc1c(-c2cccc3cnn(C)c23)ccc2c(N3CCCOCC3)nc(OCC34CCCN3CCC4)nc12 [Example 21, 4-[2-(1,2,3,5,6,7-hexahydropyrrolizin-8-ylmethoxy)-8-methyl-7-(1-methylindazol-7-yl)quinazolin-4-yl]-1,4-oxazepane] | 10 to 49 | 10 to 49 |  |
| Cc1c(-c2nc(N)cc3ccccc23)ccc2c(N3CCCOCC3)nc(OCC34CCCN3CCC4)nc12 [Example 23, 1-[2-(1,2,3,5,6,7-hexahydropyrrolizin-8-ylmethoxy)-8-methyl-4-(1,4-oxazepan-4-yl)quinazolin-7-yl]isoquinolin-3-amine] | 10 to 49 | 10 to 49 |  |
